Measured values published in patent US9526915B2, “Methods for regulating cell mitosis by inhibiting serine/threonine phosphatase” (priority 2008, dated 2016).
“And” between values parts separate entries of the source, which are not always exact repeats. Equal entries are not always repeated.

Assays:
TCTP = TCTP in U87 xenografts by 2-dimensional gel electrophoresis; type: in vivo, SCID mice; conditions: 1.5 mg/kg IP, 4 hours
Experimental: SCID mice were implanted with 5×10^6 U87 cells subcutaneously. On day 26, the mice were given 1.5 mg/kg Compound 100 by IP injection. The animals were sacrificed after 4 hours treatment and the subcutaneous mass of tumor cells were removed for 2-dimensional gel electrophoretic analysis. […] In the left panel, TCTP subsequently identified by LC-MS-MS is circled and shown in an enlargement of the gel.
SCID mice were implanted with 5 million U87 cells subcutaneously. On day 26, the mice were administered 1.5 mg/kg of compound 100 by intraperitoneal injection. The animals were sacrificed after 4 hours of treatment and the subcutaneous mass of tumor cells were removed for 2-dimensional gel electrophoretic analysis.

[1] = test system: DAOY medulloblastoma cells; assay: Western blot of DAOY cell lysates for TCTP, p-Plk, total Plk; type: cell-based, human
Experimental: DAOY cells in culture were exposed to Compound 100 for 4 hours and for 24 hours, and stained for TCTP, p-Plk and total Plk on western blots.
DAOY cells in culture were exposed to compound 100 for 4 hours and for 24 hours, and stained for TCTP, p-plk (phosphorylated plk), and total plk on western blots.

DAOY cells = assay: Immunofluorescence of alpha-tubulin and Plk-1 in DAOY cells; type: cell-based, human; conditions: 5 μM, 4 hours
Experimental: DAOY cells growing in tissue culture were exposed to 5 μM Compound 100 for 4 hours. The cells were rinsed, fixed, and stained for immunofluorescent recognition of alpha-tubulin and Plk-1. Control cells at the left show in the upper left panel diffuse staining for alpha-tubulin distributed throughout the cytoplasm. […] The lower right panel, stained for Plk-1, alpha-tubulin, and DNA show the almost pure extra nuclear location of homogeneously distributed alpha-tubulin. The right panel consists of 4 elements showing the effects of exposure to Compound 100.

[2] = test system: human glioblastoma cell line, U373; assay: U373 growth in culture for 7 days, Compound 100 with standard cytotoxic drugs; type: cell-based; conditions: Compound 100 2.5 uM, cisplatin 0.1 uM, doxorubicin 0.01 uM, taxol 0.3 nM
Experimental: Cells were exposed to vehicle alone (control); Compound 100 at 2.5 uM; cisplatin at 0.1 uM; doxorubicin at 0.01 uM; or taxol at 0.3 nM alone or to the combination of Compound 100 plus each of the standard agents at the same concentrations. […] The expected percent inhibition at 7 days is the product of the inhibition by each agent alone.
Cells were exposed to vehicle alone (control); compound 100 at 2.5 μM, cisplatin at 0.1 μM; doxorubicin at 0.01 μM; or taxol at 0.3 nM alone or to the combination of compound 100 plus each of the standard agents at the same concentrations. […] The expected percent inhibition from a combination of drugs is calculated by multiplying the actual percent inhibition by each drug alone and comparing that product to the actual percent inhibition caused by the combination of the two drugs (Valeriote, 1975). The expected percent inhibition at 7 days is the product of the inhibition by each agent alone.

human cancer cell lines = assay: Cancer cell proliferation in cell culture; type: cell-based
[3] = test system: U87 glioblastoma multiforme cells; assay: U87 s.c. xenografts in SCID mice, Compound 100; type: in vivo; conditions: treatment from day 7, measured to day 26
Experimental: SCID mice were implanted with 5×10^6 U87 cells subcutaneously. On day 7 treatment was begun on half of the animals. The size of the subcutaneous mass of tumor cells was measured weekly until the animals were sacrificed on day 26.

[4] = test system: DAOY medulloblastoma cells; assay: DAOY medulloblastoma s.c. xenografts in SCID mice; type: in vivo; conditions: treatment from day 6, by day 23
Experimental: DAOY medulloblastoma cells were implanted subcutaneously into the flanks of SCID mice. On day 6, mice were divided into 3 groups, one group receiving Compound 100, one group receiving Compound 102, and one group receiving vehicle alone. The subcutaneous tumor masses were measured on day 6, day 13, day 18, and on day 23 when all animals were sacrificed. […] In this model DAOY cells, when untreated, reached their maximum growth about 2 weeks after implantation with slow regression thereafterwards.

U373 cells [5] = assay: Cell cycle distribution of U373 cells by FACS; type: cell-based, human; conditions: U373, 48 hours
Experimental: Cells in unsynchronized logarithmic growth were exposed to vehicle or drug and adherent cells and cells in the media were collected. Harvested cells were fixed with 70% cold ethanol for 20 min at −20 degrees, washed with PBS, and stained with 10 ug/ml of PI and 1 ug/ml RNAse in TBS for 30 minutes and analyzed by FACS. A, Flow cytometry profiles of U87 cells after exposures to DMSO only, compound 102 only, 5 uM; TMZ only, 25 uM; compound 102 with TMZ combination, doxorubicin only, 2.0 uM and compound 102 with doxorubicin combination. B, Flow cytometry profiles of U373 cells. Exposures as in A, and C, Schema of proposed mechanisms of compound 102 enhancement of cancer chemotherapy.
We analyzed cell cycle patterns of U87MG and U373 cells 48 hours after exposure to TMZ or DOX alone and in combination with compound 102.

U87MG cells = assay: Cellular and molecular changes in U87MG cells (Western blots, IFS); type: cell-based, human; conditions: U87MG, 24 hours; compound 102 2.5 uM, TMZ 25 uM, DOX 2 uM
Experimental: D, Western blots of U87 lysates: TCTP, pPlk (Tre-210), total Plk, and β-actin. E, IFS of TCTP in U87 cells, F, Western blots p53 (ser-15), pMDM2 (ser-166), and β-actin and G, IFS of p53 (ser-15).
(§1) 5×10^6 U87MG cells were inoculated s.c. into each flank of 20 SCID mice. When the xenografts were 0.5+/−0.1 cm (day 0), 5 animals each received i.p. vehicle alone days 1-12 (50% DMSO/H20); compound 102 alone at 1.5 mg/kg days 1-3, 5-7, & 9-11; TMZ alone at 80 mg/kg days 4, 8, 12; or both drugs at the same doses and schedules. If xenografts reached 1800 mm^3, animals were sacrificed. […] B, Survival curve combining the data from the study shown in FIG. 12A, with a second identical study involving a total of 10 animals with two xenografts each. Disease-free survival was defined as no recurrence of either xenografts. […] As in 12A, except that xenografts of SH-SY5Y cells were implanted in one flank only and animals were treated with one additional cycle of drugs, i.e., compound 102 on days 13-15, TMZ, on day 16, and compound 102 plus TMZ on the same schedules. […] E, Western blots of U87 cells in culture 24 hours after exposure to compound 102 at 2.5 uM, TMZ at 25 uM or DOX at 2 uM, and compound 102 plus TMZ or DOX. F, Western blots of U373 cells 24 hours after exposure to compound 102 at 2.5 uM, doxorubicin at 2 uM, and both drugs. G, Western blots of U373 cells 24 hours after exposure to TMZ at 25 uM, okadaic acid at 2 nM, and both drugs.
TCTP is an abundant, highly conserved, multifunctional protein that binds to and stabilizes microtubules before and after mitosis and also exerts potent anti-apoptotic activity (Bommer and Thiele, 2004; Yarm, 2002; Susini et al, 2008) (FIG. 11E).
[…] Akt-1 activation, however, may be anti- or proapoptotic depending on the context of cell signaling (Andrabi et al, 2007).
The effects of compound 102, TMZ, doxorubicin (DOX), a widely used anti-cancer drug that disrupts DNA replication, compound 102 plus TMZ, and compound 102 plus DOX on the amount of pAkt, p53 and MDM2 in U87MG, a cell line with wild-type p53, and in U373, a cell line with mutant p53 (Short et al, 2007) were assessed by Western blots.

U87MG xenografts = assay: U87MG s.c. xenografts in SCID mice, compound 102 and TMZ; type: in vivo; conditions: same doses and schedules
Experimental: as §1
To determine the impact of altering DNA-damage defense mechanisms by inhibiting PP2A on the efficacy of cytotoxic chemotherapy, the effects of compound 102 combined with TMZ, a non-specific DNA-methylating drug, routinely used for the palliative treatment of GBM patients (Prados et al, 2008), were studied. SCID mice bearing s.c. xenografts of either the GBM line U87MG or the neuroblastoma line SH-SY5Y were treated with vehicle alone, compound 102 alone, TMZ alone, or both drugs at the same doses and schedules as when given alone.

U373 cells [6] = assay: Western blots of U373 cells; type: cell-based, human; conditions: U373, 2 nM, 24 hours
Experimental: as §1

CN1CCN(C(=O)C2C(C(=O)O)[C@H]3CC[C@@H]2O3)CC1 (some centres unmarked) [Compound 100]
TCTP concentration in U87 xenografts (TCTP): diminution in TCTP | Plk-1 phosphorylation (western blot) ([1]; 4 hours): increase | TCTP (western blot) ([1]; 4 hours): decrease | TCTP (western blot) ([1]; 24 hours): no TCTP is detectable | alpha-tubulin distribution (DAOY cells): marked distortion of the homogeneous distribution | inhibition at 7 days by agent alone [2]: 71% | inhibition of human cancer cell lines (human cancer cell lines; breast, colon, stomach, liver, ovary, prostate, brain, lung, leukemias, lymphomas): dose dependent inhibition | effect of higher doses on tumor cells (human cancer cell lines; higher doses): mitotic catastrophe and cell death | growth of tumor cells at non-inhibitory doses (human cancer cell lines; submicromolar to very low micromolar concentrations): slight but clear-cut stimulation | U87 subcutaneous xenograft growth [3]: Inhibition | DAOY subcutaneous tumor mass [4]: marked regression

COc1cccc2c1C(=O)c1c(O)c3c(c(O)c1C2=O)C[C@@](O)(C(=O)CO)C[C@@H]3O[C@H]1C[C@H](N)[C@H](O)[C@H](C)O1 [doxorubicin, reference compound]
G1 phase cells (U373 cells [5]; compound 102 5 uM, TMZ 25 uM, doxorubicin 2.0 uM): reduced | G2/M phase cells (U373 cells [5]; same concentrations): reduced | S phase cells (U373 cells [5]; same concentrations): greatly increased | MDM2 (U87MG cells): little effect | p53 (U87MG cells): increased | pAkt-1 (U87MG cells): decreased

Cn1nnc2c(C(N)=O)ncn2c1=O [TMZ, temozolomide, reference compound]
time of sacrifice (xenografts reached 1800 mm^3) (U87MG xenografts): 7-9 week

C=C1[C@@H](O)[C@@H]2O[C@]3(CC[C@H](/C=C/[C@@H](C)[C@@H]4CC(C)=C[C@@]5(O[C@H](C[C@@](C)(O)C(=O)O)CC[C@H]5O)O4)O3)CC[C@H]2O[C@@H]1[C@@H](O)C[C@H](C)[C@H]1O[C@@]2(CCCCO2)CC[C@H]1C [Okadaic acid, okadaic acid, reference compound]
effects on pAkt-1 and on mutant p53 (U373 cells [6]): mimicked the effects of compound 102

N.N.[Cl][Pt][Cl] [cisplatin]
inhibition at 7 days by agent alone [2]: 93.5% and 93%
